In patent US5420335A, “Parenteral nutrients based on watersoluble glycerol bisacetoacetates” (priority 1993, dated 1995):
Several values for one entry are separate records, joined by “and”; a condition that tells them apart may be missing. Identical values can stand only once. Entries after “also recorded” stand apart in the source; their conditions may differ.

Tests used:
[1] = Plasma free fatty acids, glucose and ketone bodies after 7 days of infusion; assay type: in vivo, rat (male Sprague-Dawley); details: end of day 7; for ACAC / BOHB / FFa / Glucose / Ratio: A/B / T.KB: Table 5, Example 2; for T.KB: total ketone bodies
Protocol: (§1) Infusate volume, oral food intake, body weight and urinary volume and total nitrogen were monitored daily for each rat. Infusate volume and food intake were determined by weighing the appropriate container at the start and end of each 24 hr. period. Measurements were recorded between 9 and 10 AM each day. At the end of the 7th day, rats were sacrificed, and blood and liver were harvested. Plasma was separated for measurement of free fatty acids, glucose, and ketone bodies. Liver was weighed and a sample was fixed in buffered formalin for gross histology.
(§2) The data were analyzed for significance by the one-way analysis of variance with repeated measures and comparing the effect of dietary treatment on each day. […] The null hypothesis was concluded invalid if p≤0.05. The analysis of variance was computed on a SAS statistical package.

[2] = Mortality and gross toxicity on intravenous infusion; details: Example 2; 12.5 g/100 mL in 0.9% saline, 50 mL/day i.v.
Protocol: (§3) Water was available ad libitum at all times.
(§4) The vein was then ligated dorsally to the catheter. […] Body weights were measured daily.

[3] = Overall evaluation as a parenteral nutrient; assay type: in vivo, rat (male Sprague-Dawley); details: in words
Protocol: as §3, §4, §1, §2

[4] = Oral dietary nitrogen (food) intake of intravenously infused rats; assay type: in vivo, rat (male Sprague-Dawley); details: for Dietary Nitrogen Intake: Table 1, Example 2
Protocol: as §3, §4, §1, §2
(§5) This compound has an estimated energy density of 4.86 kcal/gram based on thermodynamic data from similar compounds.

[5] = Daily body weight of intravenously infused rats; assay type: in vivo, rat (male Sprague-Dawley); details: for Daily Body Weight: Table 4, Example 2
Protocol: as §3, §4, §1, §2, §5

[6] = Oral dietary nitrogen (food) intake of intravenously infused rats; assay type: in vivo, rat (male Sprague-Dawley); details: Table 1, Example 2, average of 7 rats
[7] = Nitrogen balance (difference between intake and urinary output); assay type: in vivo, rat (male Sprague-Dawley); details: for nitrogen balance: 7 days; for Nitrogen Balance, Difference Between Intake and Output: Table 3, Example 2
Protocol: as §3, §4, §1, §2
FIG. 3 illustrates the difference between oral intake and urinary nitrogen output which is termed nitrogen balance. It is representative of nitrogen balance because urinary nitrogen is the major route for body loss of nitrogen.
The experimental compound contains 8% nitrogen. With an infusion of 5.6 grams/day, infused nitrogen would provide approximately 450 mg more than that listed in the data tables. The final balance figures includes this number which is calculated based on the actual daily infusion rate for each rat.

[8] = Daily urinary nitrogen losses of intravenously infused rats; assay type: in vivo, rat (male Sprague-Dawley); details: Table 2, Example 2
Protocol: as §3, §4, §1
(§6) The data were analyzed for significance by the one-way analysis of variance with repeated measures and comparing the effect of dietary treatment on each day. […] The null hypothesis was concluded invalid if p≤0.05. The analysis of variance was computed on a SAS statistical package. […]

[9] = Liver weight after 7 days of infusion; assay type: in vivo, rat (male Sprague-Dawley); details: for Liver/100 GM / Liver Wt.: Table 5, Example 2; for Liver/100 GM: as percentage of body weight
Protocol: as §1, §6

[10] = day 1, individual rat, listed as BISACETOACETYLGLYCEROL
[11] = day 2, individual rat, listed as BISACETOACETYLGLYCEROL
[12] = day 3, individual rat, listed as BISACETOACETYLGLYCEROL
[13] = day 4, individual rat, listed as BISACETOACETYLGLYCEROL
[14] = day 5, individual rat, listed as BISACETOACETYLGLYCEROL
[15] = day 6, individual rat, listed as BISACETOACETYLGLYCEROL
[16] = day 7, individual rat, listed as BISACETOACETYLGLYCEROL

Substance: Glycerol bis-acetoacetate [Compound 1]
- ACAC ([1]; plasma, average of 7 rats): 0.716 mmol/L
- BOHB ([1]; plasma, average of 7 rats): 0.776 mmol/L
- FFa ([1]; plasma, average of 7 rats): 0.563 mmol/L
- Glucose ([1]; plasma, average of 7 rats): 117.789 mg/dL
- Ratio: A/B ([1]; plasma, average of 7 rats): 1.171
- ACAC ([1]; plasma, individual rat): 0.982 mmol/L and 0.851 mmol/L and 0.939 mmol/L and 0.447 mmol/L and 0.869 mmol/L and 0.550 mmol/L and 0.377 mmol/L
- BOHB ([1]; plasma, individual rat): 0.797 mmol/L and 0.770 mmol/L and 1.059 mmol/L and 0.529 mmol/L and 1.021 mmol/L and 0.404 mmol/L and 0.849 mmol/L
- FFa ([1]; plasma, individual rat): 0.540 mmol/L and 0.574 mmol/L and 0.745 mmol/L and 0.466 mmol/L and 0.483 mmol/L and 0.615 mmol/L and 0.519 mmol/L
- Glucose ([1]; plasma, individual rat): 94.920 mg/dL and 149.000 mg/dL and 114.200 mg/dL and 163.500 mg/dL and 89.000 mg/dL and 122.100 mg/dL and 91.800 mg/dL
- Ratio: A/B ([1]; plasma, individual rat): 0.812 and 0.905 and 1.128 and 1.185 and 1.175 and 0.735 and 2.254
- T.KB ([1]; plasma, average of 7 rats): 1.492 mmol/L
- T.KB ([1]; plasma, individual rat): 1.779 mmol/L and 1.621 mmol/L and 1.998 mmol/L and 0.976 mmol/L and 1.890 mmol/L and 0.954 mmol/L and 1.226 mmol/L
- blood / plasma glucose ([1]; in words): normal blood glucose; also recorded: did not have the hyperglycemia associated with glucose infusion
- free fatty acid concentration ([1]; in words, plasma): not different for the three groups
- ketone bodies ([1]; in words, plasma): elevated; also recorded: approximately the maximum associated with total fasting in the rat
- rats died from causes unknown [2]: Five
- efficacy as parenteral nutrient / energy source [3]: providing significant energy beyond that which was available from oral dietary intake
- efficacy as parenteral nutrient / energy source ([3]; listed as 1,2- and 1,3-bisacetoacetyl glycerol): unexpectedly high nutrient activity
- Dietary Nitrogen Intake [4, 10]: 118.44 MG N and 125.02 MG N and 138.18 MG N and 611.94 MG N and 250.04 MG N and 151.34 MG N
- Dietary Nitrogen Intake [4, 11]: 342.16 MG N and 434.28 MG N and 131.6 MG N and 519.82 MG N and 447.44 MG N and 322.42 MG N
- Dietary Nitrogen Intake [4, 12]: 302.68 MG N and 631.68 MG N and 105.28 MG N and 447.44 MG N and 473.76 MG N and 263.2 MG N
- Dietary Nitrogen Intake [4, 13]: 671.16 MG N and 638.26 MG N and 78.96 MG N and 579.04 MG N and 414.54 MG N and 407.96 MG N and 388.22 MG N
- Dietary Nitrogen Intake [4, 14]: 559.3 MG N and 572.46 MG N and 230.3 MG N and 388.22 MG N and 618.52 MG N and 269.78 MG N and 296.1 MG N
- Dietary Nitrogen Intake ([4]; day 6, average of 7 rats): 361 MG N
- Dietary Nitrogen Intake [4, 15]: 539.56 MG N and 230.3 MG N and 59.22 MG N and 375.06 MG N and 625.1 MG N and 414.54 MG N and 282.94 MG N
- Dietary Nitrogen Intake [4, 16]: 565.88 MG N and 263.2 MG N and 151.34 MG N and 421.12 MG N and 644.84 MG N and 473.76 MG N and 203.98 MG N
- differences in dietary nitrogen intake among the three groups ([4]; in words, vs saline and other groups, 7 days): no differences in dietary nitrogen intake among the three groups
- Daily Body Weight ([5]; day 0, average of 7 rats): 262 Grams
- Daily Body Weight ([5]; day 0, individual rat, listed as BISACETOACETYLGLYCEROL): 282 Grams and 278 Grams and 233 Grams and 283 Grams and 268 Grams and 244 Grams
- Daily Body Weight ([5]; day 1, average of 7 rats): 268 Grams
- Daily Body Weight [5, 10]: 311 Grams and 290 Grams and 230 Grams and 284 Grams and 268 Grams and 249 Grams and 241 Grams
- Daily Body Weight ([5]; day 2, average of 7 rats): 268 Grams
- Daily Body Weight [5, 11]: 273 Grams and 289 Grams and 232 Grams and 297 Grams and 279 Grams and 249 Grams and 256 Grams
- Daily Body Weight ([5]; day 3, average of 7 rats): 273 Grams
- Daily Body Weight [5, 12]: 278 Grams and 286 Grams and 258 Grams and 292 Grams and 256 Grams and 263 Grams
- Daily Body Weight ([5]; day 4, average of 7 rats): 271 Grams
- Daily Body Weight [5, 13]: 265 Grams and 284 Grams and 226 Grams and 302 Grams and 280 Grams and 262 Grams and 276 Grams
- Daily Body Weight ([5]; day 5, average of 7 rats): 276 Grams
- Daily Body Weight [5, 14]: 261 Grams and 276 Grams and 234 Grams and 306 Grams and 285 Grams and 293 Grams and 277 Grams
- Daily Body Weight ([5]; day 6, average of 7 rats): 269 Grams
- Daily Body Weight [5, 15]: 253 Grams and 261 Grams and 252 Grams and 310 Grams and 281 Grams and 269 Grams and 260 Grams
- Daily Body Weight ([5]; day 7, average of 7 rats): 266 Grams
- Daily Body Weight [5, 16]: 249 Grams and 261 Grams and 253 Grams and 307 Grams and 276 Grams and 273 Grams and 245 Grams
- change in body weight ([5]; in words, 7 days): gained weight; also recorded: body weight changes which were consistent with nitrogen balance data; also recorded: better growth
- Dietary Nitrogen Intake ([6]; day 1): 216 MG N
- Dietary Nitrogen Intake ([6]; day 2): 333 MG N
- Dietary Nitrogen Intake ([6]; day 3): 408 MG N
- Dietary Nitrogen Intake ([6]; day 4): 454 MG N
- Dietary Nitrogen Intake ([6]; day 5): 419 MG N
- Dietary Nitrogen Intake ([6]; day 7): 389 MG N
- nitrogen balance ([7]; Example 2): around +200 mg/day
- Nitrogen Balance, Difference Between Intake and Output ([7]; day 1, average of 7 rats): 50 MG N
- Nitrogen Balance, Difference Between Intake and Output [7, 10]: 2.23 MG N and -125.18 MG N and -49.12 MG N and 488.57 MG N and 67.86 MG N and -8.55 MG N and -26.62 MG N
- Nitrogen Balance, Difference Between Intake and Output ([7]; day 2, average of 7 rats): 141 MG N
- Nitrogen Balance, Difference Between Intake and Output [7, 11]: 26.38 MG N and 170.06 MG N and 345.48 MG N and 260.22 MG N and 157.23 MG N and 36.89 MG N
- Nitrogen Balance, Difference Between Intake and Output ([7]; day 3, average of 7 rats): 271 MG N
- Nitrogen Balance, Difference Between Intake and Output [7, 12]: 120.74 MG N and 489.26 MG N and 42.31 MG N and 282.92 MG N and 469.39 MG N and 333.63 MG N and 158.48 MG N
- Nitrogen Balance, Difference Between Intake and Output ([7]; day 4, average of 7 rats): 281 MG N
- Nitrogen Balance, Difference Between Intake and Output [7, 13]: 376.48 MG N and 384.64 MG N and 31.9 MG N and 385.32 MG N and 274.87 MG N and 292.37 MG N and 219.89 MG N
- Nitrogen Balance, Difference Between Intake and Output ([7]; day 5, average of 7 rats): 204 MG N
- Nitrogen Balance, Difference Between Intake and Output [7, 14]: 269.49 MG N and 269.3 MG N and -24.36 MG N and 244.06 MG N and 343.8 MG N and 171.97 MG N and 153.78 MG N
- Nitrogen Balance, Difference Between Intake and Output ([7]; day 6, average of 7 rats): 166 MG N
- Nitrogen Balance, Difference Between Intake and Output [7, 15]: 256.54 MG N and 38.47 MG N and 48.05 MG N and 240.21 MG N and 246.31 MG N and 230.17 MG N and 103.93 MG N
- Nitrogen Balance, Difference Between Intake and Output ([7]; day 7, average of 7 rats): 170 MG N
- Nitrogen Balance, Difference Between Intake and Output [7, 16]: 184.74 MG N and 68.22 MG N and -1.58 MG N and 228.45 MG N and 375.2 MG N and 270.39 MG N and 65.18 MG N
- nitrogen balance ([7]; in words): positive nitrogen balances; also recorded: better growth and nitrogen retention
- Urinary Nitrogen ([8]; day 1, average of 7 rats): 166 mg
- Urinary Nitrogen [8, 10]: 116.21 mg and 250.2 mg and 187.3 mg and 123.37 mg and 182.18 mg and 159.89 mg and 145.06 mg
- Urinary Nitrogen ([8]; day 2, average of 7 rats): 192 mg
- Urinary Nitrogen [8, 11]: 315.78 mg and 264.22 mg and 139.27 mg and 174.34 mg and 187.22 mg and 165.19 mg and 94.71 mg
- Urinary Nitrogen ([8]; day 3, average of 7 rats): 137 mg
- Urinary Nitrogen [8, 12]: 181.94 mg and 142.42 mg and 62.97 mg and 164.52 mg and 162.29 mg and 140.13 mg and 104.72 mg
- Urinary Nitrogen ([8]; day 4, average of 7 rats): 173 mg
- Urinary Nitrogen [8, 13]: 294.68 mg and 253.62 mg and 47.06 mg and 193.72 mg and 139.67 mg and 115.59 mg and 168.33 mg
- Urinary Nitrogen ([8]; day 5, average of 7 rats): 215 mg
- Urinary Nitrogen [8, 14]: 289.81 mg and 303.16 mg and 254.66 mg and 144.16 mg and 274.72 mg and 97.81 mg and 142.32 mg
- Urinary Nitrogen ([8]; day 6, average of 7 rats): 195 mg
- Urinary Nitrogen [8, 15]: 283.02 mg and 191.83 mg and 11.17 mg and 134.85 mg and 378.79 mg and 184.37 mg and 179.01 mg
- Urinary Nitrogen ([8]; day 7, average of 7 rats): 219 mg
- Urinary Nitrogen [8, 16]: 381.14 mg and 194.98 mg and 152.92 mg and 192.67 mg and 269.64 mg and 203.37 mg and 138.8 mg
- Liver/100 GM ([9]; average of 7 rats): 3.223
- Liver/100 GM ([9]; individual rat): 2.859 and 3.494 and 3.130 and 3.795 and 2.482 and 3.183 and 3.620
- Liver Wt. ([9]; end of day 7, average of 7 rats): 8.603 Grams
- Liver Wt. ([9]; end of day 7, individual rat): 7.12 Grams and 9.12 Grams and 7.92 Grams and 11.65 Grams and 6.85 Grams and 8.69 Grams and 8.87 Grams
- liver weight and percentage liver weight ([9]; in words, end of day 7): similarity between glucose infused and experimental compound infused rats liver
